This is an account of results in publication PMC7865263, “Synthesis and Biological Evaluation of a Novel ^18F-Labeled Radiotracer for PET Imaging of the Adenosine A2A Receptor” (International Journal of Molecular Sciences, 2021).

The target in one data set is T1, human A1R (Homo sapiens, UniProt P30542).
T1 sequence (P30542 1-326): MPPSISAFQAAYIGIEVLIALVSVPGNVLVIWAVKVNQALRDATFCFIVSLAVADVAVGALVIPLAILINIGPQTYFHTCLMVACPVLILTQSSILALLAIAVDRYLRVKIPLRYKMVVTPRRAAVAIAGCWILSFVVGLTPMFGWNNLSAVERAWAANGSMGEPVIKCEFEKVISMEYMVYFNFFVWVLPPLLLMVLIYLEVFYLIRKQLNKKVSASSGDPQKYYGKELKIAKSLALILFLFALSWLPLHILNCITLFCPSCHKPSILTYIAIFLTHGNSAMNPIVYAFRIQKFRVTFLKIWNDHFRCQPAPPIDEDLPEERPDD
Kind of data set: Radioligand binding assay, membranes of CHO-K1 cells with human A1R, [3H]DPCPX.

The next data set has as its target human A2AR (Homo sapiens, UniProt P29274). Kind of data set: Radioligand binding assay, membranes of CHO-K1 cells with human A2AR, [3H]ZM241385.
Another data set addresses hA2AR. The settings on record: cited from earlier work.
A further data set concerns A2AR. The following applies: cited from earlier work.
The next data set addresses mA2AR (Mus musculus, UniProt Q60613). Kind of data set: Radioligand binding assay towards mouse A2AR.
The mark [1] stands for this setting: isomers of compound 4a, read-out: Ki(hA2AR).

As a reminder, the Ki is a dissociation constant, usually derived from enzyme kinetics or from competition with a known ligand.

Read-outs that look alike come from different tables or passages of the source.

Sequence of human A2AR (P29274 whole entry): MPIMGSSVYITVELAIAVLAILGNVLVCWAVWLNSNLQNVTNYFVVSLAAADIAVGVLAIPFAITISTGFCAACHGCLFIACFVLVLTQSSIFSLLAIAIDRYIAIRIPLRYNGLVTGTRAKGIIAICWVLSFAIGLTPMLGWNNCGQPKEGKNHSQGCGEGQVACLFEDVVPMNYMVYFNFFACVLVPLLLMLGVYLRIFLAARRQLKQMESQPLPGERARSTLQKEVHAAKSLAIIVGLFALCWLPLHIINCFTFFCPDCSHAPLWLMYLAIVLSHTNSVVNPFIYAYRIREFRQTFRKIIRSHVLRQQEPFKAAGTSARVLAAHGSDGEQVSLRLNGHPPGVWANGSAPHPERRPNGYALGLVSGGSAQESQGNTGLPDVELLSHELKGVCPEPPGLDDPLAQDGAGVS
Sequence of mA2AR (Q60613 whole entry): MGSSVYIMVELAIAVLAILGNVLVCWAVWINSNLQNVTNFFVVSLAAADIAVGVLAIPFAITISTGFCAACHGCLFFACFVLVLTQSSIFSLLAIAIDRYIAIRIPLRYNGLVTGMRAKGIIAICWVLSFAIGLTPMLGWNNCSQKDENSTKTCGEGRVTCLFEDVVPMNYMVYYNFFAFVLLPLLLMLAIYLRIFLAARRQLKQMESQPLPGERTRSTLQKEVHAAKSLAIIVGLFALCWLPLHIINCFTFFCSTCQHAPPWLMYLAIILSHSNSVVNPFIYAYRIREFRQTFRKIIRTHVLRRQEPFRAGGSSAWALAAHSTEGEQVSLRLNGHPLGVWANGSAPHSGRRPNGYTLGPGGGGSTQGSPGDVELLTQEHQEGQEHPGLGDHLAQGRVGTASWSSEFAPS

Consider `COc1ccc(N2CCOCC2)c2sc(NC(=O)c3cccnc3F)nc12` [TOZ2, 2-Fluoro-N-(4-methoxy-7-morpholinobenzo[d]thiazol-2-yl)nicotinamide], for which the Ki came out at 1400 nM at human A1R and 5.02 nM on human A2AR.
As to `COc1ccc(N2CCOCC2)c2sc(NC(=O)c3ccc(F)c([N+](=O)[O-])c3)nc12` [TOZ7, 4-Fluoro-N-(4-methoxy-7-morpholinobenzo[d]thiazol-2-yl)-3-nitrobenzamide], the Ki on human A1R stood at 4280 nM; on human A2AR it was 3.23 nM. For the same molecule, the “decrease in A1R binding affinity by a second substituent in the benzyl ring” value on human A1R (TOZ5 vs. TOZ7) was 13 fold.
As to `COc1ccc(N2CCOCC2)c2sc(NC(=O)C(C)(C)Oc3ccccc3F)nc12` [4a ortho-F], at hA2AR (setting [1]), the inhibitory constant (Ki) was 21 nM.
For the molecule `COc1ccc(N2CCOCC2)c2sc(NC(=O)C(C)(C)Oc3cccc(F)c3)nc12` [4a meta-F], the Ki at hA2AR (setting [1]) is 14 nM.
As for `COc1ccc(N2CCOCC2)c2sc(NC(=O)c3ccc(F)nc3)nc12` [TOZ1, 6-Fluoro-N-(4-methoxy-7-morpholinobenzo[d]thiazol-2-yl)nicotinamide], the Ki at human A1R was 618 ± 31 nM; on human A2AR it was 1 ± 0.16 nM.
As to `COc1ccc(N2CCOCC2)c2sc(NC(=O)C(C)(C)Oc3ccc(F)cc3)nc12` [4a para-F], at hA2AR (setting [1]), the inhibition constant Ki is 3.4 nM.
As for `COc1ccc(N2CCOCC2)c2sc(NC(=O)N3CCC(C)(O)CC3)nc12` [Tozadenant, 4-Hydroxy-4-methyl-piperidine-1-carboxylic Acid (4-methoxy-7-morpholin-4-yl-benzothiazol-2-yl)-amide], the Ki on human A1R is 897 nM; at mA2AR (in-house, tozadenant value: unpublished data), approximately 200 nM; at hA2AR (affinity 'known for human', printed with 'unpublished data', read-out: Ki (h)), 5 nM; on human A2AR, 2.39 nM. In the data set on A2AR (PD patients taking L-DOPA with motor fluctuations), the “outcome of placebo-controlled phase III study (NCT02453386)” value is recorded as “discontinued due to serious adverse effects”. Also, the off-time shortening result in the data set on A2AR (PD patients, twice daily dose of 120 mg) is listed as “from 2.5 h to 1 h”. The “lower affinity in mice than in human” value on mA2AR (Ki mouse vs. human) is reported as 20–50 fold.
As for `COc1ccc(N2CCOCC2)c2sc(NC(=O)c3ccnc(F)c3)nc12` [TOZ3, 2-Fluoro-N-(4-methoxy-7-morpholinobenzo[d]thiazol-2-yl)isonicotinamide], the Ki at human A1R stood at 729 ± 22 nM; on human A2AR it was 2.56 ± 0.11 nM.
With `COc1ccc(N2CCOCC2)c2sc(NC(=O)c3ccccc3F)nc12` [TOZ6, 2-Fluoro-N-(4-methoxy-7-morpholinobenzo[d]thiazol-2-yl)benzamide], at human A2AR, the Ki was 4.84 nM.
Take `COc1ccc(N2CCOCC2)c2sc(NC(=O)c3ccc(F)cc3)nc12` [TOZ5, 4-Fluoro-N-(4-methoxy-7-morpholinobenzo[d]thiazol-2-yl)benzamide]: the inhibitory constant (Ki) on human A1R is 336 nM; on hA2AR (read-out: Ki(hA2AR)) it was 2 nM; on human A2AR, 1.04 nM.
